In patent US8871777B2, “Phenylpyrimidone compounds, the pharmaceutical compositions, preparation methods and uses thereof” (Topharman Shanghai Co., Ltd., priority 2008, dated 2014):
Like-named read-outs stand apart in the source and are kept apart here.

Legend:
[1] = biological target: T1, human blood platelet PDE5 (Homo sapiens, UniProt O76074); experiment: PDE5 enzyme inhibition activity test (scintillation proximity); assay type: biochemical
T1 construct: obtained by suitably treating various tissues and separating the enzyme with FPLC; from tissue; host or cells: human blood platelets
Method: (§1) More specifically, PDE5 and PDE3 were obtained from human blood platelet, and PDE6 was separated from bovine retina. Upon enzyme was separated out, the enzyme inhibition activity test would be carried out immediately. The said enzyme inhibition activity test was performed by directly detecting the scintillation proximity of AMP/GMP using TRKQ7100 and TRKQ7090 kits, which was generally as follows. In the presence of different concentrations of inhibitor and a small amount of substrate, 10 μl of buffer (50 mM Tris/HCl PH 7.5, 8.3 mM MgCl2, 1.7 mM EGTA) was added, and then water was added to a final volume of 100 μl. The reaction was initiated with a fixed amount of enzyme, incubated at 30° C. for 30 min, and then quenched with 50 μl of yttrium silicate beads comprising zinc sulphate. After shaken for 20 min, the reaction mixture was put in dark and settled for 30 min, and then readed on a BECKMAN LS6500 MULTI-PURPOSE SCINTILLATION COUNTER.

PDE6 in bovine retina = biological target: T2, PDE6 in bovine retina (Bos taurus, UniProt P11541+P23439); experiment: PDE6 enzyme inhibition activity test (scintillation proximity); assay type: biochemical; details: for PDE6 IC50/PDE5 IC50: selectivity, ratio of IC50 PDE6/IC50 PDE5
T2 construct: obtained by suitably treating various tissues and separating the enzyme with FPLC; from tissue; host or cells: bovine retina
T2 sequence (P11541 2-856 limits assumed): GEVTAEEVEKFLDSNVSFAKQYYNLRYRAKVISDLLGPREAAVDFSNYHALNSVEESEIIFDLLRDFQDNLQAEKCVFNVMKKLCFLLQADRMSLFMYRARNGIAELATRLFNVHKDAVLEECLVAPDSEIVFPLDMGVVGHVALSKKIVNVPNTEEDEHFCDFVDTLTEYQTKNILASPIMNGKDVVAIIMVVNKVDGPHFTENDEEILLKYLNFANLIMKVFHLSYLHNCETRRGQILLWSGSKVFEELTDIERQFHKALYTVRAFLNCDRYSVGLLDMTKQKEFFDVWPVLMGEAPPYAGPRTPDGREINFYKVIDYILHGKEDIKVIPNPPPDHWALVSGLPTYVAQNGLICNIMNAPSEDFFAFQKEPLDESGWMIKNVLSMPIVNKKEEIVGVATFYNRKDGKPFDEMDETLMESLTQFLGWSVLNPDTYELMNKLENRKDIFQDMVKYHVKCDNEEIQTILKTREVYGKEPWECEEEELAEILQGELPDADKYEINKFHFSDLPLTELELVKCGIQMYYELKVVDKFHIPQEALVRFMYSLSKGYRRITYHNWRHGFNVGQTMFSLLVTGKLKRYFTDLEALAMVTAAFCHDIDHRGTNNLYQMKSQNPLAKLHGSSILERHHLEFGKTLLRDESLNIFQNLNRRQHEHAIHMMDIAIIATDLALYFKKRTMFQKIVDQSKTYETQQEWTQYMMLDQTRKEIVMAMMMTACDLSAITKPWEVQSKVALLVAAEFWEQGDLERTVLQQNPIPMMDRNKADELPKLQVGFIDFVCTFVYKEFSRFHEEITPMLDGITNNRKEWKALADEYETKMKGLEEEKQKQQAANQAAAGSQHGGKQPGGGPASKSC
T2 sequence (P23439 2-850 limits assumed): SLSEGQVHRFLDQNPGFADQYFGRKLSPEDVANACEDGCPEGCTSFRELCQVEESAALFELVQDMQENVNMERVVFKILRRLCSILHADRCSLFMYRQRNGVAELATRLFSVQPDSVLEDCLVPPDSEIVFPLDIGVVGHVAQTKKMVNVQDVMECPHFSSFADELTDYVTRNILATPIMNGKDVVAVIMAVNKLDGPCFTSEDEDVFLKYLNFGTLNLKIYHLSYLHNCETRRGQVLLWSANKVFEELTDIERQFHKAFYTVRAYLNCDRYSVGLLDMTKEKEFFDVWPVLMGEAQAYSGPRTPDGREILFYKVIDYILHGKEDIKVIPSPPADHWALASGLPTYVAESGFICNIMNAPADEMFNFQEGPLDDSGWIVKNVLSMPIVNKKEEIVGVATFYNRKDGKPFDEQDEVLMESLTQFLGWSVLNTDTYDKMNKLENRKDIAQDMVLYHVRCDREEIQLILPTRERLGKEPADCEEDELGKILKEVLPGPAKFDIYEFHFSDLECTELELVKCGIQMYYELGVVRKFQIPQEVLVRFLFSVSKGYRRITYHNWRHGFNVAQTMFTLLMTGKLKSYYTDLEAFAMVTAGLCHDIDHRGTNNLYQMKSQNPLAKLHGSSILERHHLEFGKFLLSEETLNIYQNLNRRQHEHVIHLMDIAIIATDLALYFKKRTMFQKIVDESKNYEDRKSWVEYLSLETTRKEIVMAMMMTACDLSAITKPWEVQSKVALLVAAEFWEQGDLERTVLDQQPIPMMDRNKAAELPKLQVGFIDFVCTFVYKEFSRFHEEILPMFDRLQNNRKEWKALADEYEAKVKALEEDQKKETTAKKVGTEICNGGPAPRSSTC
Method: as §1

[2] = PDE6 separated from bovine retina, read-out: PDE6 IC50

| SMILES | IC50 ([1]; PDE5 table) | IC50 ([1]; as repeated in the PDE6 table) | IC50 (PDE6 in bovine retina; [2]) | PDE6 IC50/PDE5 IC50 (PDE6 in bovine retina) | IC50 (PDE6 in bovine retina) |
| --- | --- | --- | --- | --- | --- |
| CCCOc1ccc(C(=O)CN2CCOCC2)cc1-c1nc(CC)c(CC)c(=O)[nH]1 [Example 76, 5,6-diethyl-2-(5-(2-morpholinylacetyl)-2-n-propoxyphenyl)pyrimid-4(3H)-one] | 1.99 nM | 1.99 nM | 25.2 nM | 12.7 |  |
| CCCOc1ccc(C(=O)NC(Cc2ccc(O)cc2)C(=O)OC)cc1-c1nc(CC)c(CC)c(=O)[nH]1 (stereo not drawn) [Example 140, methyl 2-(3-(4,5-diethyl-1,6-dihydro-6-oxopyrimidin-2-yl)-4-n-propoxybenzamido)-3-(4-hydroxyphenyl)propionate] | 0.57 nM | 0.57 nM | 4.25 nM | 7.5 |  |
| CCCOc1ccc(NC(=O)C(N)=O)cc1-c1nc(CC)c(CC)c(=O)[nH]1 [Example 114, N^1-(3-(4,5-diethyl-1,6-dihydro-6-oxopyrimidin-2-yl)-4-n-propoxyphenyl)oxalamide] | 0.83 nM | 0.83 nM | 18.7 nM | 10.53 |  |
| CCCOc1ccc(NC(=S)NCC)cc1-c1nc(CC)c(CC)c(=O)[nH]1 [Example 43, 1-(3-(4,5-Diethyl-1,6-dihydro-6-oxopyrimidin-2-yl)-4-n-propoxyphenyl)-3-ethylthiourea] | 3.72 nM | 3.72 nM | 42.8 nM | 11.5 |  |
| CCCOc1ccc(NC(C)=O)cc1-c1nc(CC)c(CC)c(=O)[nH]1 [Example 53, N-(3-(1,6-dihydro-4,5-diethyl-6-oxopyrimidin-2-yl)-4-propoxyphenyl)acetamide] | 0.57 nM | 0.57 nM | 36.8 nM | 66.2 |  |
| CCCOc1ccc(S(=O)(=O)NCCCS(=O)(=O)O)cc1-c1nc(CC)c(CC)c(=O)[nH]1 [Example 124, 3-(N-(3-(4,5-diethyl-1,6-dihydro-6-oxopyrimidin-2-yl)-4-n-propoxyphenyl)sulfonyl)aminopropylsulfonic acid] | 0.13 nM | 0.13 nM | 3.76 nM | 28.6 |  |
| CCCOc1ccc(NC(=O)CCCNC(C)=O)cc1-c1nc(CC)c(CC)c(=O)[nH]1 [Example 107, 4-Acetamido-N-(3-(4,5-diethyl-1,6-dihydro-6-oxopyrimidin-2-yl)-4-n-propoxyphenyl)butyramide] | 0.92 nM | 0.92 nM | 6.42 nM | 22.64 |  |
| CCCOc1ccc(C(=O)N2CCCC2C(=O)OC)cc1-c1nc(CC)c(CC)c(=O)[nH]1 (stereo not drawn) [Example 139] | 0.61 nM | 0.61 nM | 7.82 nM | 12.8 |  |
| CCCOc1ccc(C(=O)NC2CCC(C(=O)OC)NC2)cc1-c1nc(CC)c(CC)c(=O)[nH]1 (stereo not drawn) [Example 174, methyl 5-(3-(4,5-diethyl-1,6-dihydro-6-oxopyrimidin-2-yl)-4-n-propoxybenzamido)piperidine-2-formate] | 0.45 nM | 0.45 nM | 13.7 nM | 30.3 |  |
| CCCOc1ccc(S(=O)(=O)NCCS(=O)(=O)O)cc1-c1nc(CC)c(CC)c(=O)[nH]1 [Example 125, 2-(N-(3-(4,5-diethyl-1,6-dihydro-6-oxopyrimidin-2-yl)-4-n-propoxyphenyl)sulfonyl)aminoethylsulfonic acid] | 0.19 nM | 0.19 nM |  | 14.6 | 2.71 nM |
| CCCOc1ccc(NC(=O)C2CCCCC2)cc1-c1nc(CC)c(CC)c(=O)[nH]1 [Example 55, N-(3-(1,6-dihydro-4,5-diethyl-6-oxopyrimidin-2-yl)-4-propoxyphenyl)cyclohexamide] | 0.92 nM | 0.93 nM | 20.1 nM | 21.8 |  |
| CCCOc1ccc(S(=O)(=O)N(CCO)CCN2CCOCC2)cc1-c1nc(CC)c(CC)c(=O)[nH]1 [Example 135, 5,6-diethyl-2-(2-n-propoxy-5-(N-(2-morpholinylethyl)-N-(2-hydroxyethyl)aminosulfonyl)phenyl)pyrimid-4(3H)-one] | 1.01 nM | 1.01 nM | 9.66 nM | 9.6 |  |
| CCCOc1ccc(NC(C)=O)cc1-c1nc(C(C)C)c(Br)c(=O)[nH]1 [Example 52, N-(3-(1,6-dihydro-4-isopropyl-5-bromo-6-oxopyrimidin-2-yl)-4-propoxyphenyl)acetamide] | 1.46 nM | 1.46 nM | 52.6 nM | 36.0 |  |
| CCCOc1ccc(C(=O)N2CCOCC2)cc1-c1nc(CC)c(CC)c(=O)[nH]1 [Example 59, (Morpholin-1-yl)(3-(4,5-diethyl-1,6-dihydro-6-oxopyrimidin-2-yl)-4-n-propoxy)benzophenone] | 0.57 nM | 0.57 nM | 7.88 nM | 13.7 |  |
| CCCOc1ccc(C(=O)N2CCN(CCO)CC2)cc1-c1nc(CC)c(CC)c(=O)[nH]1 [Example 164] | 0.46 nM | 0.46 nM | 31.8 nM | 68.7 |  |
| CCCOc1ccc(C(=O)NC(CC(N)=O)C(=O)O)cc1-c1nc(CC)c(CC)c(=O)[nH]1 (stereo not drawn) [Example 146, 2-(3-(4,5-diethyl-1,6-dihydro-6-oxopyrimidin-2-yl)-4-n-propoxybenzamido)-3-aminoformylpropionic acid] | 0.93 nM | 0.93 nM | 6.64 nM | 7.2 |  |
| CCCOc1ccc(S(=O)(=O)N2CCCC2C(=O)O)cc1-c1nc(CC)c(CC)c(=O)[nH]1 (stereo not drawn) [Example 32] | 2.02 nM | 2.02 nM | 40.6 nM | 20.1 |  |
| CCCOc1ccc(NC(=O)C2CCCN2C(C)=O)cc1-c1nc(CC)c(CC)c(=O)[nH]1 (stereo not drawn) [Example 108, 1-acetyl-N-(3-(4,5-diethyl-1,6-dihydro-6-oxopyrimidin-2-yl)-4-n-propoxyphenyl)pyrrolidinyl-2-formamide] | 0.54 nM | 0.54 nM | 5.73 nM | 6.99 |  |
| CCCOc1ccc(NC(=O)NCC)cc1-c1nc(CC)c(CC)c(=O)[nH]1 [Example 68, 1-(3-(4,5-Diethyl-1,6-dihydro-6-oxopyrimidin-2-yl)-4-n-propoxyphenyl)-3-ethylurea] | 0.53 nM | 0.53 nM | 16.4 nM | 31.0 |  |
| CCCOc1ccc(C(=O)N2CCN(CCOCCO)CC2)cc1-c1nc(CC)c(CC)c(=O)[nH]1 [Example 163] | 7.92 nM | 7.92 nM | 48.6 nM | 6.1 |  |
| CCCOc1ccc(C(=O)N2CCCC2C(N)=O)cc1-c1nc(CC)c(CC)c(=O)[nH]1 (stereo not drawn) [Example 61] | 1.93 nM | 1.93 nM | 29.1 nM | 15.1 |  |
